# In patent US9175357B2, “Fragment ligated inhibitors selective for the polo box domain of PLK1” (UNIVERSITY OF SOUTH CAROLINA, priority 2011, dated 2015):
# Numbered stars: 1 amine (or outer) side, 2 acyl side, 3 side chain; on linkers, the order of the positions; unused ones are H or OH. Square brackets hold non-standard residues; d marks the D form. Ends that are not written are not given here. Peptide text beside a SMILES is read from it. * marks the point of attachment. Quinoline(6-carbonyl) = O=C(c1ccc2ncccc2c1)*; X11 = O=C(c1cn(S(=O)(=O)c2ccccc2)c2ccccc12)*; X6 = Cc1c(C(=O)*)cc(-c2ccccc2)n1-c1ccccc1; NMe4Abz = CN(c1ccc(C(=O)[*:2])cc1)[*:1]; X3 = Cc1ccc(-c2cn(CC(=O)*)c(=O)cn2)cc1; pT = C[C@@H](OP(=O)(O)O)[C@H](N)C(=O)O; X14 = COc1cccc(-c2cc(C(=O)*)[nH]n2)c1; Benzoyl(4-OMe) = COc1ccc(C(=O)*)cc1; X7 = Cc1ccc2c(c1)N(CC(=O)*)C(=O)CO2; Benzoyl(4-Et) = CCc1ccc(C(=O)*)cc1; 1Naphthoyl = O=C(c1cccc2ccccc12)*; X2 = Cc1nc(-c2ccc(C(=O)*)cc2)no1; X10 = COc1cc(C(=O)*)cc2c1OCCO2; X15 = COc1ccc(C(=O)*)c2ccccc12; X8 = Cc1cc2c(SCC(=O)*)ncnc2s1; X1 = CCCCc1ccc(C(=O)*)cc1; X17 = CCCc1ccc(C(=O)*)cc1; X5 = CCCNc1ccc(C(=O)*)cc1; X9 = CCOc1ccc(C(=O)*)cc1; X4 = CSc1ccc(C(=O)*)cc1
# Biological target: PLK1 (Homo sapiens (Human), UniProt P53350)
# Assay: not given
# Settings: previously identified minimized PBD binding sequences; cited from earlier work
# Sequence of PLK1 (P53350 326-603): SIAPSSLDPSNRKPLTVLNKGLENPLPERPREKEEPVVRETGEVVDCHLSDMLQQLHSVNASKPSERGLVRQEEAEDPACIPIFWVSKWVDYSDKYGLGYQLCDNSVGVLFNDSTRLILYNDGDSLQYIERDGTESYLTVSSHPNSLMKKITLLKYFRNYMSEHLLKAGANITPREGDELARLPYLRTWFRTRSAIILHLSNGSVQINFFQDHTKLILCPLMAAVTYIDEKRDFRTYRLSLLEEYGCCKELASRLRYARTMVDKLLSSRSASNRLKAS
row,Compound,Kd
1,"CC[C@H](C)[C@H](NC(=O)[C@H](C)NC(=O)[C@@H](NC(=O)[C@H](CO)NC(=O)[C@H](Cc1c[nH]cn1)NC(=O)[C@@H](N)CC(C)C)[C@@H](C)OP(=O)(O)O)C(=O)O [compound 5649, LHS[pT]AI] (H-LHS[pT]AI-OH)",0.25 µM

# Biological target: PLK1 PBD protein (residues 367-603) (Homo sapiens (Human), UniProt P53350)
# Assay: Competitive fluorescence polarization (FP) binding assay, PLK1 PBD
# Settings: not given
# Sequence of PLK1 PBD protein (residues 367-603) (P53350 367-603): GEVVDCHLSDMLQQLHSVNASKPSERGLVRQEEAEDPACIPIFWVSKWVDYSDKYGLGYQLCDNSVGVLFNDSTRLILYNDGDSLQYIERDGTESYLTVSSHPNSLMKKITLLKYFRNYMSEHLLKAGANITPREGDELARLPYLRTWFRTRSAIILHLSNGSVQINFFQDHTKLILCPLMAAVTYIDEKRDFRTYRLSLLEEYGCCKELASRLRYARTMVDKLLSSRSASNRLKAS
row,Compound,IC50
1,Cc1c(C(=O)N[C@@H](CO)C(=O)N[C@H](C(=O)N2CCC[C@H]2C(=O)N[C@@H](CC(N)=O)C(=O)NCC(=O)N[C@@H](CC(C)C)C(=O)O)[C@@H](C)OP(=O)(O)O)cc(-c2ccccc2)n1-c1ccccc1 [compound 5599] (X6-S[pT]PNGL-OH),600 µM
2,CC(C)C[C@H](NC(=O)CNC(=O)[C@H](CC(N)=O)NC(=O)[C@@H]1CCCN1C(=O)[C@@H](NC(=O)[C@H](CO)NC(=O)c1cn(S(=O)(=O)c2ccccc2)c2ccccc12)[C@@H](C)OP(=O)(O)O)C(=O)O [compound 5591] (X11-S[pT]PNGL-OH),375 µM
3,"Cc1nc(-c2ccc(C(=O)N[C@@H](CO)C(=O)N[C@H](C(=O)N3CCC[C@H]3C(=O)N[C@@H](CC(N)=O)C(=O)NCC(=O)N[C@@H](CC(C)C)C(=O)O)[C@@H](C)OP(=O)(O)O)cc2)no1 [compound 5598, 1G2-S[pT]PNGL] (X2-S[pT]PNGL-OH)",320 µM
4,COc1cccc(-c2cc(C(=O)N[C@@H](CO)C(=O)N[C@H](C(=O)N3CCC[C@H]3C(=O)N[C@@H](CC(N)=O)C(=O)NCC(=O)N[C@@H](CC(C)C)C(=O)O)[C@@H](C)OP(=O)(O)O)[nH]n2)c1 [compound 5593] (X14-S[pT]PNGL-OH),380 µM
5,CC(C)C[C@H](NC(=O)CNC(=O)[C@H](CC(N)=O)NC(=O)[C@@H]1CCCN1C(=O)[C@@H](NC(=O)[C@H](CO)NC(=O)c1cccc2ccccc12)[C@@H](C)OP(=O)(O)O)C(=O)O [compound 5753] (1Naphthoyl-S[pT]PNGL-OH),104 µM
6,Cc1cc2c(SCC(=O)N[C@@H](CO)C(=O)N[C@H](C(=O)N3CCC[C@H]3C(=O)N[C@@H](CC(N)=O)C(=O)NCC(=O)N[C@@H](CC(C)C)C(=O)O)[C@@H](C)OP(=O)(O)O)ncnc2s1 [compound 5595] (X8-S[pT]PNGL-OH),475 µM
7,CC(C)C[C@H](NC(=O)CNC(=O)[C@H](CC(N)=O)NC(=O)[C@@H]1CCCN1C(=O)[C@@H](NC(=O)[C@H](CO)NC(=O)c1ccc2ncccc2c1)[C@@H](C)OP(=O)(O)O)C(=O)O [compound 5601] ({Quinoline(6-carbonyl)}-S[pT]PNGL-OH),400 µM
8,"COc1ccc(C(=O)N[C@@H](CO)C(=O)N[C@H](C(=O)N2CCC[C@H]2C(=O)N[C@@H](CC(N)=O)C(=O)NCC(=O)N[C@@H](CC(C)C)C(=O)O)[C@@H](C)OP(=O)(O)O)c2ccccc12 [compound 5756, 2G1-S[pT]PNGL] (X15-S[pT]PNGL-OH)",99 µM
9,"Cc1ccc2c(c1)N(CC(=O)N[C@@H](CO)C(=O)N[C@H](C(=O)N1CCC[C@H]1C(=O)N[C@@H](CC(N)=O)C(=O)NCC(=O)N[C@@H](CC(C)C)C(=O)O)[C@@H](C)OP(=O)(O)O)C(=O)CO2 [compound 5594, 1G1-S[pT]PNGL] (X7-S[pT]PNGL-OH)",350 µM
10,COc1cc(C(=O)N[C@@H](CO)C(=O)N[C@H](C(=O)N2CCC[C@H]2C(=O)N[C@@H](CC(N)=O)C(=O)NCC(=O)N[C@@H](CC(C)C)C(=O)O)[C@@H](C)OP(=O)(O)O)cc2c1OCCO2 [compound 5604] (X10-S[pT]PNGL-OH),300 µM
11,"Cc1ccc(-c2cn(CC(=O)N[C@@H](CO)C(=O)N[C@H](C(=O)N3CCC[C@H]3C(=O)N[C@@H](CC(N)=O)C(=O)NCC(=O)N[C@@H](CC(C)C)C(=O)O)[C@@H](C)OP(=O)(O)O)c(=O)cn2)cc1 [compound 5603, 1G3-S[pT]PNGL] (X3-S[pT]PNGL-OH)",250 µM

# Same assay, conditions: Table 1
row,PLK1 PBD IC50,Compound
1,weakly but detectably bound,"Ac-PLHSEA [compound 5744, Ac-PLHSEA]"
2,no detectable binding,"CC(C)C[C@H](NC(=O)CNC(=O)[C@H](CC(N)=O)NC(=O)[C@@H]1CCCN1C(=O)[C@@H](NC(=O)[C@@H](N)CO)[C@@H](C)OP(=O)(O)O)C(=O)O [Sample No. 5714, S[pT]PNGL] (H-S[pT]PNGL-OH)"

# Same assay, conditions: Table 1; read-out: PLK1 PBD IC50
row,IC50,Compound
1,5 µM,"CC[C@H](C)[C@H](NC(=O)[C@H](C)NC(=O)[C@@H](NC(=O)[C@H](CO)NC(=O)[C@H](Cc1c[nH]cn1)NC(=O)[C@H](CC(C)C)NC(C)=O)[C@@H](C)OP(=O)(O)O)C(=O)O [Sample No. 5781, Ac-LHS[pT]AI, reference compound] (Ac-LHS[pT]AI-OH)"

# Same assay, conditions: Table 2, FP assay; read-out: IC50
row,IC50,Compound
1,16.5 µM,"CCc1ccc(C(=O)N[C@@H](CO)C(=O)N[C@H](C(=O)N2CCC[C@H]2C(=O)N[C@@H](CC(N)=O)C(=O)NCC(=O)N[C@@H](CC(C)C)C(=O)O)[C@@H](C)OP(=O)(O)O)cc1 [compound 5788, 3G1-S[pT]PNGL (4-ethylbenzoic acid)] ({Benzoyl(4-Et)}-S[pT]PNGL-OH)"
2,64.7 µM,CCOc1ccc(C(=O)N[C@@H](CO)C(=O)N[C@H](C(=O)N2CCC[C@H]2C(=O)N[C@@H](CC(N)=O)C(=O)NCC(=O)N[C@@H](CC(C)C)C(=O)O)[C@@H](C)OP(=O)(O)O)cc1 [compound 5786] (X9-S[pT]PNGL-OH)
3,31.2 µM,CNc1ccc(C(=O)N[C@@H](CO)C(=O)N[C@H](C(=O)N2CCC[C@H]2C(=O)N[C@@H](CC(N)=O)C(=O)NCC(=O)N[C@@H](CC(C)C)C(=O)O)[C@@H](C)OP(=O)(O)O)cc1 [compound 5792] (NMe4Abz-S[pT]PNGL-OH)
4,10.8 µM,CCCc1ccc(C(=O)N[C@@H](CO)C(=O)N[C@H](C(=O)N2CCC[C@H]2C(=O)N[C@@H](CC(N)=O)C(=O)NCC(=O)N[C@@H](CC(C)C)C(=O)O)[C@@H](C)OP(=O)(O)O)cc1 [compound 5826] (X17-S[pT]PNGL-OH)
5,16.5 µM,CCCNc1ccc(C(=O)N[C@@H](CO)C(=O)N[C@H](C(=O)N2CCC[C@H]2C(=O)N[C@@H](CC(N)=O)C(=O)NCC(=O)N[C@@H](CC(C)C)C(=O)O)[C@@H](C)OP(=O)(O)O)cc1 [compound 5830] (X5-S[pT]PNGL-OH)
6,8.6 µM,"CCCCc1ccc(C(=O)N[C@@H](CO)C(=O)N[C@H](C(=O)N2CCC[C@H]2C(=O)N[C@@H](CC(N)=O)C(=O)NCC(=O)N[C@@H](CC(C)C)C(=O)O)[C@@H](C)OP(=O)(O)O)cc1 [compound 5827, 3G2-S[pT]PNGL (4-butylbenzoic acid)] (X1-S[pT]PNGL-OH)"
7,18.5 µM,CSc1ccc(C(=O)N[C@@H](CO)C(=O)N[C@H](C(=O)N2CCC[C@H]2C(=O)N[C@@H](CC(N)=O)C(=O)NCC(=O)N[C@@H](CC(C)C)C(=O)O)[C@@H](C)OP(=O)(O)O)cc1 [compound 5791] (X4-S[pT]PNGL-OH)
8,125 µM,COc1ccc(C(=O)N[C@@H](CO)C(=O)N[C@H](C(=O)N2CCC[C@H]2C(=O)N[C@@H](CC(N)=O)C(=O)NCC(=O)N[C@@H](CC(C)C)C(=O)O)[C@@H](C)OP(=O)(O)O)cc1 [compound 5754] ({Benzoyl(4-OMe)}-S[pT]PNGL-OH)
